In patent US11944608B2, “Targeting RNA viruses using inhibitors of METTL3” (priority 2020, dated 2024):
“Also recorded” adds a separate entry of the source. Read-outs that look alike come from different tables or passages of the source.

Key:
SARS-CoV-2 [1] = test: microbe, parasite or virus in culture; assay type: cell-based
hCoV-OC43 [2] = test: hCoV-OC43 replication and spread in MRCS cells, N protein immunofluorescence, high-content imaging; assay type: cell-based
Method: FIG. 2. Inhibiting METTL3 in lung fibroblasts suppresses hCOV-OC43 replication. (A) MRCS cells infected with hCOV-OC43 [MOI=0.001] were treated with vehicle (DMSO), control compound (M3c), active METTL3 inhibitor (M3i) or (+) control antiviral remdesivir (rem). Viral spread through the culture was determined by immunofluorescence using an antibody to the hCoV-OC43 nucleocapsid protein (green stain). (B) Quantitation of N protein positive cells from (A) (n=3; **P<0.005; *P<0.05 by t-test for M3c vs M3i). Suppression of viral replication by M3i is evident from >0.5 mM and higher. (C) Test compounds (3 mM) have no significant impact on MRCS viability (n=3) after 48 h of treatment.
To evaluate how METTL3 enzymatic activity impacted coronavirus reproduction, we compared the activity of a specific METTL3 chemical inhibitor (Tzelepis et al., 2019), here termed M3i, to a structurally related control compound M3c unable to inhibit METTL3. […] To measure coronavirus replication, we developed an assay (FIG. 2A) that uses indirect immunofluorescence to detect coronavirus nucleocapsid protein (N) to monitor and quantify virus reproduction and spread using a high-content imaging platform (Cellinsight CX7 LZR). […] In FIG. 2C, the bars from left to right indicate DMSO, M3c, M3i, and remdesivir. […] In FIG. 3A, the bars from left to right represent DMSO, M3c and M3i. In FIG. 3B, the bars represent Not Treated, M3c and M3i. […] It is believed this requirement will extend to other RNA viruses, including coronaviruses with pandemic potential. The data further provide proof in principle that the cellular m^6A modification machinery represents an unexpected host target for anti-coronavirus drug targeting.

hCoV-OC43 [3] = test: hCoV-OC43 infectious virus production from MRCS cells by TCID50; assay type: cell-based; settings: for hCoV-OC43 infectious virus production: TCID50 after 48h, compared to equivalent concentrations of M3c or DMSO; for efficacy compared with remdesivir: hCoV-OC43 infectious virus production
Method: FIG. 8. Inhibiting METTL3 in lung fibroblasts limits hCOV-OC43 infectious virus production. MRCS cells infected with hCOV-OC43 [MOI=0.001] were treated with vehicle (DMSO), control compound (M3c) or active METTL3 inhibitor (M3i2 in A or M3i in B) at the indicated concentration. After 48h, the amount of infectious virus released was quantified by TCID50. N=3. **P<0.01; *P<0.05 by student's t-test.
In FIGS. 7B and 7C, each set of bars from left to right signifies DMSO, M3c and M3i2. […] To determine how METTL3 chemical inhibitors influenced virus production, we quantified and compared infectious virus produced by infected cell cultures treated with vehicle, a control compound (M3c), the two different METTL3 chemical inhibitors (M3i, M3i2) and remdesivir.

MRCS cells = test: MRCS cell viability (ATP, Celltiterglo2.0); assay type: cell-based, human
Method: To determine viability, cells were seeded to opaque white 96-well plates. The next day, cells were drug- or vehicle-treated and incubated as in infection experiments (for example, treated-MRC-5 cells were placed for 48 h at 33° C.). ATP levels were then assayed using Celltiterglo2.0 (Promega G9242) according to the manufacturer's instructions. Luciferase signal was read on a Perkin Elmer Envision 2103 multilabel reader, and 24-h 1 μM staurosporine treatment used as a positive control for assay sensitivity.

viral dsRNA = test: Viral dsRNA accumulation, immunofluorescence with J2 dsRNA-specific antibody; assay type: cell-based
SARS-CoV-2 [4] = assay type: cell-based; settings: FIG. 3A
METTL3 = METTL3 (Homo sapiens, UniProt Q86U44); settings: Tzelepis et al., 2019; cited from earlier work
[5] = system: coronavirus nucleocapsid protein (N); assay type: cell-based; settings: infected MRCS cells, 24 h treatment / 24 hpi
viral RNA = test: Viral RNA accumulation by RT-qPCR; assay type: cell-based; settings: RT-qPCR (not shown)
A549+ACE2 cells = settings: 48 h, FIG. 11B
SARS-CoV-2 [6] = test: SARS-CoV-2 infectious virus titers from A549+ACE2 cells by plaque assay; assay type: cell-based; settings: MOI=0.1, 30 μM
Method: FIG. 11. Inhibition of METTL3 activity suppresses β-coronavirus replication in A549+ACE2 cells. […] The percentage of cells infected was established by green fluorescence and normalized to infection of nontreated cells. (B) The viability of A549+ACE2 cells in the presence of concentrations of each compound used in the infection assays shown in A was assessed using a commercial ATP quantitation assay. Cells were maintained at 37° C. in culture medium containing diluted compound for 48 h prior to lysis. Each experiment was conducted three times with internal duplicates, normalized to DMSO-treated cells processed in parallel and plotted as the mean±SEM. (C) Representative montages showing wells from the infections quantified in A that were treated with 30 μM M3c or M3i2 and infected with icSARS-CoV-2-mNG. (D) Infectious virus titers from A549+ACE2 cells infected with icSARS-CoV-2-mNG at MOI=0.1 and treated with 30 μM either M3c or M3i2 was determined by plaque assay.
This concordance further validates the high-content imaging assay as a measure of viral replication and release. Thus, a selective small molecule METTL3 inhibitor effectively suppresses the productive replication of human β-coronavirus, pandemic SARS-CoV-2 in a further human lung cell line.

Sequence of METTL3 (Q9HCE5 whole entry): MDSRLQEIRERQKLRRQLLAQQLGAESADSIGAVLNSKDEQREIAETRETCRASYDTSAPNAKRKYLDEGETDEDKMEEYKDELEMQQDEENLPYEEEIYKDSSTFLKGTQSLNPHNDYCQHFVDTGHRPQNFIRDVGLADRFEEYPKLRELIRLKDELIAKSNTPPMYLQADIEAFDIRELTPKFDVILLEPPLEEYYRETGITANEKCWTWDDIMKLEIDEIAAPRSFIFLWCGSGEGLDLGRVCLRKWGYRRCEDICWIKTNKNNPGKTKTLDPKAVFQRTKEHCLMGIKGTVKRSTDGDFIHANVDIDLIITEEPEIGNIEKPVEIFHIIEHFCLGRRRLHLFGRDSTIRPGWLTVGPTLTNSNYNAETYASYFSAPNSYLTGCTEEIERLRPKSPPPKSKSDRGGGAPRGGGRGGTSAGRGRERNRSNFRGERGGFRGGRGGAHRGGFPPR
Sequence of METTL3 (Q86U44 whole entry): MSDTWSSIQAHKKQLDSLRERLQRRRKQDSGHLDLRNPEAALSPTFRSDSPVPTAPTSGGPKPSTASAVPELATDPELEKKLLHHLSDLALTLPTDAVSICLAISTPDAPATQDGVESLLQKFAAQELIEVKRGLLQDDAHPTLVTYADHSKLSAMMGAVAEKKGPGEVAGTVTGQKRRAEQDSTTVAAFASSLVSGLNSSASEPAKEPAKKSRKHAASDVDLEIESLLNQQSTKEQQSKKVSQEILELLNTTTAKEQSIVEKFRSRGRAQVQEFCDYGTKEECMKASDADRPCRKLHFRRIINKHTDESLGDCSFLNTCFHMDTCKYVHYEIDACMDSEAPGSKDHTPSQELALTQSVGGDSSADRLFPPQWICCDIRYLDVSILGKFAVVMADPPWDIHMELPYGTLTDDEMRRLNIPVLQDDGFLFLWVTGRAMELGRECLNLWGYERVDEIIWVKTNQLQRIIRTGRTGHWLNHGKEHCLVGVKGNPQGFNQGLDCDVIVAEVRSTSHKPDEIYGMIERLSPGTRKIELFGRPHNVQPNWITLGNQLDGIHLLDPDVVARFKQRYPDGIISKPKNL

For CACCUACGGACAGCUCAGU[dT][dT] [siRNA #4], the “reduction of the percentage of infected (mNeonGreen-positive) cells” value (from here on “reduction of the percentage of infected”) (SARS-CoV-2 [1]) was 89%.
For “GUCAAUGGGAGUGGGCAUU[dT][dT] [YTHDF1 siRNA #2]”, the “reduction of the percentage of infected” value (SARS-CoV-2 [1]; siRNA 72 h before infection, MOI=0.1, 48 h, compared with control nonsilencing siRNA) was 23%.
In the case of “AGGAGCCAGCCAAGAAAUCAA[dT][dT] [METTL3-2]”, the “hCoV-OC43 replication and spread (N protein positive cells) after METTL3 depletion” value (hCoV-OC43 [2]; cultures treated with M3c) is reported as “not” and the “hCoV-OC43 replication and spread (N protein positive cells) after METTL3 depletion” value (hCoV-OC43 [2]; cultures treated with M3i) is reported as “increased”.
For “GUAACGGAGACCAUCAUUU[dT][dT] [YTHDF1 siRNA #1]”, the “reduction of the percentage of infected” value (SARS-CoV-2 [1]) was 68%.
For “GAAACGCGGCGUUUGGGCA[dT][dT] [YTHDF1 siRNA #3]”, the “reduction of the percentage of infected” value (SARS-CoV-2 [1]) was 79%.
With CUGCAAGUAUGUUCACUAUGA[dT][dT [METTL3-1] the “hCoV-OC43 replication and spread (N protein positive cells) after METTL3 depletion” value (hCoV-OC43 [2]; cultures treated with M3c) was “not” and the “hCoV-OC43 replication and spread (N protein positive cells) after METTL3 depletion” value (hCoV-OC43 [2]; cultures treated with M3i) was “increased”.
For CC1(C)CCN(Cc2ccc3nc(Cn4cc(-c5cc(Br)cc6[nH]ncc56)nn4)cn3c2)CC1 [M3i], the “impact on viability of Calu-3 cell” value (Calu-3 cells; concentrations of 3 mM or lower) was “minimal impact”, the “effects on Calu-3 cell viability” value (Calu-3 cells; over the dosage range tested (FIG. 3B)) was “negligible detectable effects” and the “reduction of hCoV-OC43 replication compared with M3i2” value (hCoV-OC43 [3]; FIG. 8) was “to a greater extent than M3i2”. For the same molecule, the “hCoV-OC43 infectious virus production” value (hCoV-OC43 [3]) was “reduced”, the “efficacy compared with remdesivir” value (hCoV-OC43 [3]; FIG. 8) was “neither were as efficacious as remdesivir” and the “cell viability of siRNA-treated cultures” value (MRCS cells; MRCS cells, siRNA-treated, FIG. 9C) was “did not detectably change”. For the same molecule, the “effects on MRCS cell viability” value (MRCS cells; over the dosage range tested (FIG. 2C)) was “negligible detectable effects”, the “viral dsRNA accumulation” value (viral dsRNA) was “blocks; also recorded: significant reduction” and the “SARS-CoV-2 replication in Calu-3 cells” value (SARS-CoV-2 [4]) was “significantly reduced”. The “selectivity for METTL3” value (METTL3) was “highly selective”, the “concentration at which hCoV-OC43 replication and spread is strongly suppressed” value (hCoV-OC43 [2]; MRCS cells) was ≥ 0.5 µM and the “hCoV-OC43 reproduction and spread in MRCS cells” value (hCoV-OC43 [2]; compared to the inactive compound M3c, FIG. 9) was “reduced”. For the same molecule, the “N accumulation / N expression” value [5] was “reduced” and the “accumulation of viral RNA” value (viral RNA) was “significant reduction”.
With O=C(NCc1cn2cc(CNCC3CCCCC3)ccc2n1)c1cc(=O)n2ccccc2n1 [M3i2] the IC50 (SARS-CoV-2 [1]; Severe acute respiratory syndrome coronavirus 2, A549+ACE2 cells, read-out: IC50 against SARS-CoV-2) was 16.8 µM, the “icSARS-CoV-2-mNG-infected A549+ACE2 cells” value (SARS-CoV-2 [1]; higher concentrations, compared with DMSO or M3c) was “clearly reduced” and the “viability of A549+ACE2 cells” value (A549+ACE2 cells) was “Minor differences”. For the same molecule, the “hCoV-OC43 infectious virus production” value (hCoV-OC43 [3]) was “reduced”, the “efficacy compared with remdesivir” value (hCoV-OC43 [3]; FIG. 8) was “neither were as efficacious as remdesivir” and the “effects on cell viability” value (MRCS cells; 10 μM, MRCS cells (FIG. 7C)) was “without any discernible effects”. The “reduction of SARS-CoV-2 infectious virus production” value (SARS-CoV-2 [6]) was 300 fold and the “hCoV-OC43 reproduction and spread through MRCS cells” value (hCoV-OC43 [2]; 10 μM, compared to control compound M3c) was “inhibited”.
